Laboratory results published in patent US20210253557A1, “SUBSTITUTED TRIAZOLE DERIVATIVES AND USES THEREOF” (Bayer Pharma Aktiengesellschaft, priority 2017, published 2021).
pIC50: −log10 of the molar value.

Key:
[1] = molecular target: T1, human V1a receptor (Homo sapiens, UniProt P37288); experiment: Cellular in vitro assay for determining vasopressin receptor activity (V1a, aequorin luminescence); assay type: cell-based; settings: for pIC50: CHO cell line transfected with the human V1a receptor, [Arg8]-vasopressin at EC50 concentration, read-out: IC50 hV1a; for ratio IC50 hV2/hV1a: selectivity ratio of IC50 hV2 to IC50 hV1a
T1 construct: expressed in transfected cells; host or cells: CHO K1 (ATCC), also stably transfected with a modified aequorin

[2] = molecular target: T2, human V2 receptor (Homo sapiens, UniProt P30518); experiment: Cellular in vitro assay for determining vasopressin receptor activity (V2, CRE-luciferase); assay type: cell-based; settings: CHO cell line transfected with the human V2 receptor; [Arg8]-vasopressin at EC50 concentration; read-out: IC50 hV2
T2 construct: expressed in transfected cells; host or cells: CHO K1 (ATCC) expressing firefly luciferase under a CRE-responsive promoter
Summary of the method: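 Antagonism was measured as inhibition of a 3-h, EC50-level [Arg8]-vasopressin stimulation, with compounds tested at several concentrations, yielding IC50 values. The read-out was cAMP-driven CRE-luciferase luminescence after lysis, in recombinant CHO K1 cells carrying human V2 receptor. Cells were seeded in 2% FCS DMEM/F12 one day earlier.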

T2 sequence (P30518 whole entry): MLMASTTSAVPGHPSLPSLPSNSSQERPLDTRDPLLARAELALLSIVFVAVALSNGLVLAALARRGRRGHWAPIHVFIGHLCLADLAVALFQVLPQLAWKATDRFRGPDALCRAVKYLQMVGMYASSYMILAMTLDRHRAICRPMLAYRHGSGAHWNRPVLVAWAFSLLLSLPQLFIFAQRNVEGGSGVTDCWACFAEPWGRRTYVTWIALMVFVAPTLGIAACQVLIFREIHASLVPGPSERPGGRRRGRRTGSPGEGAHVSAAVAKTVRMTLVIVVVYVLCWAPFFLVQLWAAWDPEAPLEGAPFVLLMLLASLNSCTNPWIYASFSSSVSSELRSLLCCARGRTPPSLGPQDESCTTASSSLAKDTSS
T1 sequence (P37288 whole entry): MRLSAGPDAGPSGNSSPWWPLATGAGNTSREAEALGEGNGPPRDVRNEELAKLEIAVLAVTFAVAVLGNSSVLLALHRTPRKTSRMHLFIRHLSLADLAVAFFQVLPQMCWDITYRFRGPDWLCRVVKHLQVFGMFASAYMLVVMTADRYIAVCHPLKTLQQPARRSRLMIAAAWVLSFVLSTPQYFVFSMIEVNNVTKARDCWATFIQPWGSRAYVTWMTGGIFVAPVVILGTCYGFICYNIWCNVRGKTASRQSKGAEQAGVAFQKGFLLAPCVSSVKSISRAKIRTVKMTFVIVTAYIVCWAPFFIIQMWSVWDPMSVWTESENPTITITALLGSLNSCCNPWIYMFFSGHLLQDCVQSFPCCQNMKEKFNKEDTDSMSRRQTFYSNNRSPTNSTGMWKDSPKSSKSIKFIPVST

Structure (SMILES)	pIC50 [1]	ratio IC50 hV2/hV1a [1]	pIC50 [2]
O=C1NC(c2nc(Cn3nc(-c4ccc(Cl)cc4)n(C[C@H](O)C(F)(F)F)c3=O)nn2-c2ncccc2Cl)CO1 (single isomer, unassigned) [Example 113]	8.24	23.1	6.87
O=C1NC(c2nc(Cn3nc(-c4ccc(Cl)cc4)n(C[C@H](O)C(F)(F)F)c3=O)nn2-c2ncccc2Cl)CO1 (single isomer, unassigned) [Example 114]	7.64	23.2	6.28
O=C1NC(c2nc(Cn3nc(-c4ccc(Cl)cc4)n(C[C@H](O)C(F)(F)F)c3=O)nn2-c2ncccc2OC(F)(F)F)CO1 (single isomer, unassigned) [Example 118]	7.77	22.7	6.41
O=C1NC(c2nc(Cn3nc(-c4ccc(Cl)cc4)n(C[C@H](O)C(F)(F)F)c3=O)nn2-c2ncccc2OC(F)(F)F)CO1 (single isomer, unassigned) [Example 119]	7.24	15.4	6.06
CC(=O)NC(CO)c1nc(Cn2nc(-c3ccc(Cl)cc3)n(C[C@H](O)C(F)(F)F)c2=O)nn1-c1ncccc1OC(F)(F)F (single isomer, unassigned) [Example 121]	6.83	18.8	5.56
CC(=O)NC(CO)c1nc(Cn2nc(-c3ccc(Cl)cc3)n(C[C@H](O)C(F)(F)F)c2=O)nn1-c1ncccc1OC(F)(F)F (single isomer, unassigned) [Example 122]	8.20	44.1	6.55
CNc1ccncc1-n1nc(Cn2nc(-c3ccc(Cl)cc3)n(C[C@H](O)C(F)(F)F)c2=O)nc1C(C)NC(C)=O (single isomer, unassigned) [Example 126]	5.86	0.9	5.90
CNc1ccncc1-n1nc(Cn2nc(-c3ccc(Cl)cc3)n(C[C@H](O)C(F)(F)F)c2=O)nc1C(C)NC(C)=O (single isomer, unassigned) [Example 127]	7.28	29.3	5.81
CN1C(=O)CCC1c1nc(Cn2nc(-c3ccc(Cl)cc3)n(C[C@H](O)C(F)(F)F)c2=O)nn1CCC(F)(F)F (single isomer, unassigned) [Example 131]	8.02	161.3	5.81
CN1C(=O)CCC1c1nc(Cn2nc(-c3ccc(Cl)cc3)n(C[C@H](O)C(F)(F)F)c2=O)nn1CCC(F)(F)F (single isomer, unassigned) [Example 132]	7.73	93.5	5.76
C[C@H](OC(N)=O)c1nc(Cn2nc(-c3ccc(Cl)cc3)n(C[C@H](O)C(F)(F)F)c2=O)nn1-c1c(Cl)cccc1Cl [Example 1, (1S)-1-[3-({3-(4-Chlorophenyl)-5-oxo-4-[(2S)-3,3,3-trifluoro-2-hydroxypropyl]-4,5-dihydro-1H-1,2,4-triazol-1-yl}methyl)-1-(2,6-dichlorophenyl)-1H-1,2,4-triazol-5-yl]ethyl Carbamate]	8.46	4.7	7.79
C[C@@H](OC(N)=O)c1nc(Cn2nc(-c3ccc(Cl)cc3)n(C[C@H](O)C(F)(F)F)c2=O)nn1-c1c(Cl)cccc1Cl [Example 2, (1R)-1-[3-({3-(4-Chlorophenyl)-5-oxo-4-[(2S)-3,3,3-trifluoro-2-hydroxypropyl]-4,5-dihydro-1H-1,2,4-triazol-1-yl}methyl)-1-(2,6-dichlorophenyl)-1H-1,2,4-triazol-5-yl]ethyl Carbamate]	9.01	6.0	8.24
C[C@@H](OC(N)=O)c1nc(Cn2nc(-c3ccc(Cl)cc3)n(C[C@H](O)C(F)(F)F)c2=O)nn1-c1c(F)cccc1Cl [Example 3, (1R)-1-[1-(2-Chloro-6-fluorophenyl)-3-({3-(4-chlorophenyl)-5-oxo-4-[(2S)-3,3,3-trifluoro-2-hydroxypropyl]-4,5-dihydro-1H-1,2,4-triazol-1-yl}methyl)-1H-1,2,4-triazol-5-yl]ethyl Carbamate]	8.87	5.1	8.16
C[C@@H](OC(N)=O)c1nc(Cn2nc(-c3ccc(Cl)cc3)n(C[C@H](O)C(F)(F)F)c2=O)nn1-c1ccc(F)cc1Cl [Example 4, (1R)-1-[1-(2-Chloro-4-fluorophenyl)-3-({3-(4-chlorophenyl)-5-oxo-4-[(2S)-3,3,3-trifluoro-2-hydroxypropyl]-4,5-dihydro-1H-1,2,4-triazol-1-yl}methyl)-1H-1,2,4-triazol-5-yl]ethyl Carbamate]	8.84	9.2	7.87
C[C@H](OC(N)=O)c1nc(Cn2nc(-c3ccc(Cl)cc3)n(C[C@H](O)C(F)(F)F)c2=O)nn1-c1ccccc1OC(F)F [Example 5, (1S)-1-{3-({3-(4-Chlorophenyl)-5-oxo-4-[(2S)-3,3,3-trifluoro-2-hydroxypropyl]-4,5-dihydro-1H-1,2,4-triazol-1-yl}methyl)-1-[2-(difluoromethoxy)phenyl]-1H-1,2,4-triazol-5-yl}ethyl Carbamate]	8.80	4.4	8.15
C[C@@H](OC(N)=O)c1nc(Cn2nc(-c3ccc(Cl)cc3)n(C[C@H](O)C(F)(F)F)c2=O)nn1-c1ccccc1OC(F)F [Example 6, (1R)-1-{3-({3-(4-Chlorophenyl)-5-oxo-4-[(2S)-3,3,3-trifluoro-2-hydroxypropyl]-4,5-dihydro-1H-1,2,4-triazol-1-yl}methyl)-1-[2-(difluoromethoxy)phenyl]-1H-1,2,4-triazol-5-yl}ethyl Carbamate]	9.09	25.6	7.68
C[C@H](OC(N)=O)c1nc(Cn2nc(-c3ccc(Cl)cc3)n(C[C@H](O)C(F)(F)F)c2=O)nn1-c1ccccc1OC(F)(F)F [Example 7, (1S)-1-{3-({3-(4-Chlorophenyl)-5-oxo-4-[(2S)-3,3,3-trifluoro-2-hydroxypropyl]-4,5-dihydro-1H-1,2,4-triazol-1-yl}methyl)-1-[2-(trifluoromethoxy)phenyl]-1H-1,2,4-triazol-5-yl}ethyl Carbamate]	8.44	7.4	7.57
C[C@@H](OC(N)=O)c1nc(Cn2nc(-c3ccc(Cl)cc3)n(C[C@H](O)C(F)(F)F)c2=O)nn1-c1ccccc1OC(F)(F)F [Example 8, (1R)-1-{3-({3-(4-Chlorophenyl)-5-oxo-4-[(2S)-3,3,3-trifluoro-2-hydroxypropyl]-4,5-dihydro-1H-1,2,4-triazol-1-yl}methyl)-1-[2-(trifluoromethoxy)phenyl]-1H-1,2,4-triazol-5-yl}ethyl Carbamate]	9.07	190.5	6.79
C[C@H](OC(N)=O)c1nc(Cn2nc(-c3ccc(Cl)cc3)n(C[C@H](O)C(F)(F)F)c2=O)nn1-c1ccccc1S(N)(=O)=O [Example 9, (1S)-1-[3-({3-(4-Chlorophenyl)-5-oxo-4-[(2S)-3,3,3-trifluoro-2-hydroxypropyl]-4,5-dihydro-1H-1,2,4-triazol-1-yl}methyl)-1-(2-sulfamoylphenyl)-1H-1,2,4-triazol-5-yl]ethyl Carbamate]	7.50	4.3	6.87
C[C@H](OC(N)=O)c1nc(Cn2nc(-c3ccc(Cl)cc3)n(C[C@H](O)C(F)(F)F)c2=O)nn1-c1ccccn1 [Example 10, (1S)-1-[3-({3-(4-Chlorophenyl)-5-oxo-4-[(2S)-3,3,3-trifluoro-2-hydroxypropyl]-4,5-dihydro-1H-1,2,4-triazol-1-yl}methyl)-1-(pyridin-2-yl)-1H-1,2,4-triazol-5-yl]ethyl Carbamate]	7.28	2.0	6.98
C[C@@H](OC(N)=O)c1nc(Cn2nc(-c3ccc(Cl)cc3)n(C[C@H](O)C(F)(F)F)c2=O)nn1-c1ccccn1 [Example 11, (1R)-1-[3-({3-(4-Chlorophenyl)-5-oxo-4-[(2S)-3,3,3-trifluoro-2-hydroxypropyl]-4,5-dihydro-1H-1,2,4-triazol-1-yl}methyl)-1-(pyridin-2-yl)-1H-1,2,4-triazol-5-yl]ethyl Carbamate]	6.94	2.0	6.65
C[C@H](OC(N)=O)c1nc(Cn2nc(-c3ccc(Cl)cc3)n(C[C@H](O)C(F)(F)F)c2=O)nn1-c1ncccc1F [Example 12, (1S)-1-[3-({3-(4-Chlorophenyl)-5-oxo-4-[(2S)-3,3,3-trifluoro-2-hydroxypropyl]-4,5-dihydro-1H-1,2,4-triazol-1-yl}methyl)-1-(3-fluoropyridin-2-yl)-1H-1,2,4-triazol-5-yl]ethyl Carbamate]	7.45	3.6	6.90
C[C@@H](OC(N)=O)c1nc(Cn2nc(-c3ccc(Cl)cc3)n(C[C@H](O)C(F)(F)F)c2=O)nn1-c1ncccc1F [Example 13, (1R)-1-[3-({3-(4-Chlorophenyl)-5-oxo-4-[(2S)-3,3,3-trifluoro-2-hydroxypropyl]-4,5-dihydro-1H-1,2,4-triazol-1-yl}methyl)-1-(3-fluoropyridin-2-yl)-1H-1,2,4-triazol-5-yl]ethyl Carbamate]	7.87	2.6	7.46
